Peptide text beside a SMILES is read from it.
Tests used:
[1] = molecular target: T1, SpSte2 with SpSxa2 or other fungal proteases (Schizosaccharomyces pombe, UniProt Q00619); assay: Dose-response of SpSte2 fluorescent strains with cognate or noncognate proteases; format: cell-based
T1 construct: we cloned codon-optimized open reading frames (ORFs) of all 5 proteases and GPCRs; expressed in transfected cells; host or cells: S. cerevisiae strains from yTC370 (yTC530, yTC529, yTC531-534, yTC525, yTC526); two genome-integrated pTDH3-SpSTE2 copies
T1 sequence (Q00619 1-348): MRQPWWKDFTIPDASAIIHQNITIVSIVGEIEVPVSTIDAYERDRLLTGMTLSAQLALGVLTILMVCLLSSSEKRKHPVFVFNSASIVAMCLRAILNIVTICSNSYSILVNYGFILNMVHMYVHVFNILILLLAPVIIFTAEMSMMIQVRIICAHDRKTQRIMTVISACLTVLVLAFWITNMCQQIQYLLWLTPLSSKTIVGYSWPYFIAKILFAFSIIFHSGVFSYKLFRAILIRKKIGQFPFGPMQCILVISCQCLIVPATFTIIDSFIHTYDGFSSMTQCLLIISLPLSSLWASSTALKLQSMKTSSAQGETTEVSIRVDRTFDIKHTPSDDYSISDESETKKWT
Experimental: (§1) Glycerol stocked strains were streaked out on YPD plate and incubated for 2 days. Three colonies were picked, replated on YPD plate, incubated for 1 day, and then stored at 4 °C. For activation assays, a small scoop of yeast patch from the 3 colonies was resuspended in ~4 ml of YPD medium and incubated overnight. Overnight cells were seeded at an optical density at 600 nm (OD600) of 0.15 (as measured in 96-well plate at 200-μl volume) in SC/Glc medium after washing twice with sterile Mili-Q H2O. GPCR activity and response to increasing concentrations of synthetic peptide ligands were measured in strains carrying appropriate genome-integrated components in 96-well microtiter plates in 200-μl total volume and cultured at 30 °C and 800 rpm, unless otherwise stated. All measurements were performed in biological triplicate. Culture turbidity (OD600) and fluorescence for ymTurquoise2 (excitation, 439 nm; emission, 475 nm; gain, 75) were measured after 0 and 8 h using an Infinite 200 Pro plate reader (Tecan). Dose–response curve was measured at 11 different concentrations of the appropriate synthetic peptide ligand with a constant dilution factor and a no-peptide, H2O control. The absorbance at 600 nm normalized fluorescence values and log10-transformed peptide concentrations were fit to a 4-parameter nonlinear regression model using Prism (GraphPad) to extract GPCR-specific values for basal activation, maximal activation, EC50, and the Hill coefficient.
(§2) To validate the effect of peptide proteases on their complementary and noncomplementary peptides (Table S8), from the parent strain yTC370, we engineered 30 strains (Table S1).
(§3) Next, to validate whether we can control the extent of peptide cleavage by their cognate proteases by modulating the concentration of expressed protease, we constitutively expressed proteases under promoters of different expression levels. For the purpose of determining the protease’s specificity in previous section (S1), all proteases were expressed under pCCW12, which is one of the strongest characterized promoters in yeast. Here, we introduced 2 additional promoters to convey medium and low expression levels of the proteases. We selected pRPL18B for medium expression and pRAD27 for low expression level. We cloned these promoters upstream from protease ORFs in Golden Gate cassette plasmids, assembled the protease cassettes with their cognate GPCRs and fluorescent readout, and integrated into parent yTC370 strain (see Materials and Methods and Table S1). Then, we compared dose–response curves of strains responding to their cognate peptides without the protease or with protease at 3 different expression levels (low, medium, and high) (S2).

[2] = tested on: SoSte2 with SoSxa2 or other fungal proteases; assay: Dose-response of SoSte2 fluorescent strains with cognate or noncognate proteases; format: cell-based, Schizosaccharomyces octosporus
Experimental: as §1, with “coefficient. […]” for “coefficient.”
Next, to validate whether we can control the extent of peptide cleavage by their cognate proteases by modulating the concentration of expressed protease, we constitutively expressed proteases under promoters of different expression levels. […] We cloned these promoters upstream from protease ORFs in Golden Gate cassette plasmids, assembled the protease cassettes with their cognate GPCRs and fluorescent readout, and integrated into parent yTC370 strain (see Materials and Methods and Table S1). […]

[3] = tested on: SjSte2 with SjSxa2 or other fungal proteases; assay: Dose-response of SjSte2 fluorescent strains with cognate or noncognate proteases; format: cell-based, Schizosaccharomyces japonicus
Experimental: as §1, §2, §3

[4] = noncomplementary proteases, pCCW12, fluorescent readout

Sequence of SoSte2 with SoSxa2 or other fungal proteases (as listed by the source): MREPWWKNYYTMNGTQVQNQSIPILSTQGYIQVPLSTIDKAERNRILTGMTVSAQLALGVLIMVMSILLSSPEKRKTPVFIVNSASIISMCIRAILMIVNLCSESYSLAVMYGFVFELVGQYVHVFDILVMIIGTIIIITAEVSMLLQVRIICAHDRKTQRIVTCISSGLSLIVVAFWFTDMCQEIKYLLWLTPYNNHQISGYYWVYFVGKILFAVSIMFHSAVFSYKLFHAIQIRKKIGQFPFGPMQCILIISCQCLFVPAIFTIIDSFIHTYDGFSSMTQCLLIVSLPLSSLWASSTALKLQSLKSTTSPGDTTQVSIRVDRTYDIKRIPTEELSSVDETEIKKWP
Sequence of SjSte2 with SjSxa2 or other fungal proteases (as listed by the source): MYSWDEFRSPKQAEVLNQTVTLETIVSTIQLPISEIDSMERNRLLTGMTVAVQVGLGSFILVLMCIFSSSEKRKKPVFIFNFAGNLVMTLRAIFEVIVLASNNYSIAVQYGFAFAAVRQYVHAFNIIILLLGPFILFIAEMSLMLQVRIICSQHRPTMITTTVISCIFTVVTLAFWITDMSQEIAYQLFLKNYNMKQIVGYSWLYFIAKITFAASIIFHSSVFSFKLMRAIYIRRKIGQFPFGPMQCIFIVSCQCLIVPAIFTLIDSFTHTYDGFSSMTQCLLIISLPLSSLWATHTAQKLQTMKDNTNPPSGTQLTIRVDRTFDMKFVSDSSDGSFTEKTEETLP

CC(C)C[C@H](NC(=O)[C@H](CC(N)=O)NC(=O)[C@@H]1CCCN1C(=O)[C@H](CCCNC(=N)N)NC(=O)[C@H](CC(=O)O)NC(=O)[C@@H]1CCCN1C(=O)[C@H](CC(N)=O)NC(=O)[C@@H](NC(=O)[C@H](Cc1ccccc1)NC(=O)[C@@H](NC(=O)[C@H](CC(N)=O)NC(=O)[C@H](Cc1c[nH]c2ccccc12)NC(=O)[C@H](CO)NC(=O)[C@H](CCC(N)=O)NC(=O)[C@H](Cc1ccc(O)cc1)NC(=O)[C@H](C)NC(=O)[C@H](CCCNC(=N)N)NC(=O)[C@H](CC(C)C)NC(=O)[C@H](Cc1ccccc1)NC(=O)[C@H](CC(=O)O)NC(=O)[C@H](C)NC(=O)[C@H](Cc1ccc(O)cc1)NC(=O)[C@@H](N)[C@@H](C)O)[C@@H](C)O)C(C)C)C(=O)O [SpPep] (H-TYADFLRAYQSWNTFVNPDRPNL-OH; N-terminus and C-terminus assumed)
effect of cognate protease SpSxa2 on response ([1]; SpSxa2 under pCCW12 (high expression), fluorescent readout, 8 h): practically completely attenuated the response | EC50 shift with low SpSxa2 expression ([1]; SpSxa2 under pRAD27 (low expression), fluorescent readout, 8 h): did not show notable apparent EC50 shift | EC50 shift with medium SpSxa2 expression ([1]; SpSxa2 under pRPL18B (medium expression), fluorescent readout, 8 h): ~2 orders of magnitude | cleavage by ScBar1 and CaBar1 [1, 4]: did not cleave | apparent EC50 with complementary protease SpSxa2 ([1]; out of the measurable peptide concentration range, pCCW12, fluorescent readout): > 100 µM | apparent EC50 shift with noncomplementary proteases SjSxa2 and SoSxa2 ([1]; pCCW12, fluorescent readout): between half and one order of magnitude

TYEDFLRVYKNWWSFQNPDRPDL [SoPep, S. octosporus pheromone peptide, synthetic]
EC50 shift with low and medium SoSxa2 expression ([2]; SoSxa2 under pRAD27 or pRPL18B, compared to strain with no protease): did not notably shift the apparent EC50 | cleavage by ScBar1 and CaBar1 [2, 4]: did not cleave | apparent EC50 shift with noncomplementary proteases SjSxa2 and SpSxa2 ([2]; pCCW12, fluorescent readout): between half and one order of magnitude

VSDRVKQMLSHWWNFRNPDTANL [SjPep, S. japonicus pheromone peptide, synthetic]
apparent EC50 shift with complementary protease SjSxa2 ([3]; SjSxa2 under pCCW12 (high expression), fluorescent readout, 8 h): over one order of magnitude | EC50 shift with low SjSxa2 expression ([3]; SjSxa2 under pRAD27 (low expression)): did not affect EC50 | apparent EC50 shift with medium and high SjSxa2 expression ([3]; SjSxa2 under pRPL18B and pCCW12, out of measurable range (>100 μM)): more than 2 orders of magnitude | EC50 ([3]; out of the measurable peptide concentration range, pCCW12, fluorescent readout, read-out: apparent EC50 with complementary protease SjSxa2): > 100 µM
